The record followed here is US4593104A, “2-halo-N-(azole-1-yl-methyl)-substituted acetanilides” (BASF Aktiengesellschaft, priority 1976, dated 1986).

For one data set, the system named is Setaria spp. Put plainly: preemergence treatment in the greenhouse, % damage. It is filed as in vivo. Particulars: 2.0 kg/ha. A digest of the protocol: (§1)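 Sow shallow in sandy loam, spray actives (water vehicle) on soil at once for preemergence, irrigate, hood until rooting; or grow to 3–10 cm and spray unhooded for postemergence. Keep 4–6 weeks at 15–40 °C by species, then score damage 0–100.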

For data set [1], the system named is Alopec. myosur. As to the kind of experiment: preemergence treatment in the greenhouse, % damage. It is filed as in vivo. The note with it: 2.0 kg/ha. A digest of the protocol:
as §1

The test system of another data set is Echin. c.g. Put plainly: preemergence treatment in the greenhouse, % damage. It is filed as in vivo. The gist of the method: as §1
For data set [2], the system named is Brassica napus. As to the kind of experiment: preemergence treatment in the greenhouse, % damage. The note with it: 2.0 kg/ha. The class given is in vivo. A digest of the protocol: as §1
For a further data set, the system named is Bromus spp. As to the kind of experiment: preemergence treatment in the greenhouse, % damage. The class given is in vivo. A digest of the protocol:
as §1

The subject of another data set is Matric. spp. As to the kind of experiment: preemergence treatment in the greenhouse, % damage. It is filed as in vivo. Particulars: 2.0 kg/ha. The gist of the method: as §1
For the next data set, the system named is Solanum nigrum. As to the kind of experiment: preemergence treatment in the greenhouse, % damage. The class given is in vivo. A digest of the protocol:
as §1

For another data set, the system named is Zea mays. Put plainly: preemergence treatment in the greenhouse, % damage. Particulars: 2.0 kg/ha. The class given is in vivo. A digest of the protocol: as §1
The next data set relates to Poa annua. Put plainly: preemergence treatment in the greenhouse, % damage. It is filed as in vivo. Particulars: 0.25 kg/ha. The gist of the method: as §1
The next data set deals with Chrys. seget. Put plainly: preemergence treatment in the greenhouse, % damage. The class given is in vivo. The note with it: 0.25 kg/ha. The gist of the method: as §1
A further data set relates to Amar. retro. As to the kind of experiment: preemergence treatment in the greenhouse, % damage. The class given is in vivo. A digest of the protocol:
as §1

The subject of the next data set is Euph. gen. As to the kind of experiment: preemergence treatment in the greenhouse, % damage. Particulars: 0.25 kg/ha. The class given is in vivo. The gist of the method:
as §1

The test system of another data set is Sorgh. halep. Put plainly: preemergence treatment in the greenhouse, % damage. The class given is in vivo. The gist of the method: as §1
Data set [3] relates to Alopec. myosur. Put plainly: preemergence application in the open, % damage. It is filed as in vivo. On the procedure: (§2) The experiments were carried out on small plots. The soil was a sandy loam having a pH of from 5 to 6 and containing from 1 to 1.5% humus. The treatment was preemergence, the active ingredients being applied immediately or at the latest 3 days after sowing. The crop plants were sown in rows. The weed flora was made up of the most widely varying species and was natural; the weed flora depended on the time of the year and in part on the crop (e.g., spring-germinating, summer-germinating). The substances were emulsified or suspended in water as the vehicle, and applied by means of a motor-driven plot spray mounted on a hitch. When no rain fell, the plots were watered to ensure germination and growth of the crop plants and weeds. All the experiments were run for several weeks. Over this period, assessments were made at certain intervals on the 0 to 100 scale.

Another data set concerns Stellaria media. Put plainly: preemergence application in the open, % damage. It is filed as in vivo. The protocol: as §2
The subject of data set [4] is Brassica napus. Put plainly: preemergence application in the open, % damage. It is filed as in vivo. The protocol: as §2
The next data set has as its system Anth./Matric. Put plainly: preemergence application in the open, % damage. It is filed as in vivo. The protocol: as §2
The next data set relates to Lamium spp. As to the kind of experiment: preemergence application in the open, % damage. The class given is in vivo. On the procedure: as §2
In another data set the test system is Cyp. diff. Put plainly: preemergence treatment in the greenhouse, % damage. The class given is in vivo. A digest of the protocol:
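Seeds sown in sandy loam (~1.5% humus); pre-emergence: agents sprayed in water onto soil surface immediately after sowing, then irrigated and hooded until rooting. Post-emergence: plants treated at 3–10 cm height, unhooded. Greenhouse at 25–40 °C or 15–30 °C by species; rates in kg/ha a.i.; damage scored 0–100 after 4–6 weeks.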

A further data set relates to Cenchr. ech. Put plainly: preemergence treatment in the greenhouse, % damage. It is filed as in vivo. A digest of the protocol:
as §1

For a further data set, the system named is Ipom. spp. As to the kind of experiment: preemergence treatment in the greenhouse, % damage. The class given is in vivo. The gist of the method: as §1
Another data set has as its system Sida spin. As to the kind of experiment: preemergence treatment in the greenhouse, % damage. The class given is in vivo. The gist of the method:
as §1

The test system of a further data set is Lept. spp. Put plainly: preemergence treatment in the greenhouse, % damage. The class given is in vivo. A digest of the protocol: as §1
The test system of the next data set is Panic. virg. Put plainly: preemergence treatment in the greenhouse, % damage. It is filed as in vivo. The gist of the method:
as §1

In another data set the test system is Glyc. max. Put plainly: preemergence treatment in the greenhouse, % damage. The class given is in vivo, Glycine max. A digest of the protocol: as §1
A further data set deals with Gossyp. hirs. Put plainly: preemergence treatment in the greenhouse, % damage. It is filed as in vivo, Gosspyium hirsutum. An excerpt: The vessels employed were plastic flowerpots having a volume of 300 cm^3; the substrate was a sandy loam containing about 1.5% humus. The seeds of the test plants (see Table 1) were sown shallow, and separated according to species. In the case of Cyperus esculentus, pregerminated tubers were planted. In the preemergence treatment, the active ingredients were then immediately applied to the surface of the soil. They were suspended or emulsified in water as the vehicle, and sprayed through atomizing nozzles. After the agents had been applied, the vessels were lightly sprinkler-irrigated to set germination and growth going, and to activate the chemical agents. The vessels were then covered with transparent plastic hoods until the plants had taken root. This cover ensured uniform germination of the test plants (to the extent that this was not impaired by the chemicals), and prevented readily volatile substances from evaporating.
For postemergence treatment, the plants were first grown to a height of from 3 to 10 cm, depending on their habit, before treated. Hoods were not placed on the pots. The experiments were set up in the greenhouse, hotter areas (25° to 40° C.) being preferred for heat-loving species, and 15° to 30° C. for plants from moderate climates. The experiments were carried out for from 4 to 6 weeks. During this period the plants were tended and their reaction to the various treatments was assessed. The following tables contain the substances investigated, the application rates in kg/ha of active ingredient, and the test plant species. Assessments were made on a 0 to 100 scale, 0 denoting no damage or normal emergence, and 100 denoting no emergence or complete destruction of at least the visible plant parts.

Molecules are shown by their SMILES.

Regarding `Cc1ccccc1N(Cn1cccn1)C(=O)CCl`, the “% damage” value was found to be 95% with Setaria spp.; 90% with Alopec. myosur. [1]; 95% with Echin. c.g. (2.0 kg/ha); 0% in the data set on Brassica napus [2]; 80% in the data set with Bromus spp. (2.0 kg/ha); 90% in the data set with Matric. spp.. Further, the “% damage” value turned out to be 95% with Solanum nigrum (2.0 kg/ha) and 15% in the data set with Zea mays.
With `Cc1ccccc1N(Cn1nccc1C)C(=O)CCl`, the “% damage” value with Setaria spp. stood at 100%; in the data set with Alopec. myosur. [1], 90%; in the data set on Echin. c.g. (2.0 kg/ha), 95%; in the data set with Brassica napus [2] it was 10%; with Bromus spp. (2.0 kg/ha), 90%; in the data set on Matric. spp., 90%. Besides, the “% damage” value came to 100% in the data set on Solanum nigrum (2.0 kg/ha) and 0% in the data set on Zea mays.
For the molecule `Cc1ccccc1N(Cn1nc(C)c(C)c1C)C(=O)CCl`, the “% damage” value in the data set with Setaria spp. is given as 100%; with Alopec. myosur. [1] it was 50%; in the data set on Echin. c.g. (2.0 kg/ha), 55%; in the data set with Brassica napus [2] it was 30%; in the data set with Bromus spp. (2.0 kg/ha), 80%; in the data set with Matric. spp. it was 95%. The “% damage” value was determined as 100% in the data set on Solanum nigrum (2.0 kg/ha) and 10% in the data set on Zea mays.
As to `CCc1cccc(C)c1N(Cn1cccn1)C(=O)CCl` [Compound 7], the “% damage” value was 100% with Poa annua; 100% with Chrys. seget.; 88% with Amar. retro. (0.25 kg/ha); 95% in the data set with Bromus spp. (0.25 kg/ha); 100% in the data set on Solanum nigrum (0.25 kg/ha); 80% with Euph. gen.. Besides, the “% damage” value came out at 75% in the data set on Sorgh. halep. (0.25 kg/ha); 70% in the data set on Alopec. myosur. [3] (0.5 kg/ha); 85% in the data set with Alopec. myosur. [3] (1.0 kg/ha); 80% in the data set on Stellaria media (0.5 kg/ha); 95% with Stellaria media (1.0 kg/ha); 5% in the data set on Brassica napus [4] (0.5 kg/ha). For the same molecule, the “% damage” value turned out to be 10% in the data set with Brassica napus [4] (1.0 kg/ha), 100% in the data set on Anth./Matric. (0.5 kg/ha), 95% with Lamium spp. (0.5 kg/ha) and 100% in the data set with Lamium spp. (1.0 kg/ha).
Regarding `CCc1cccc(C)c1N(Cn1nc(C)cc1C)C(=O)CCl` [Compound 40], the “% damage” value in the data set with Poa annua is listed as 100%; with Cyp. diff. (0.125 kg/ha) it was 100%; in the data set on Cyp. diff. (0.25 kg/ha), 100%; in the data set on Chrys. seget. it was 30%; in the data set on Amar. retro. (0.125 kg/ha) it was 90%; in the data set with Amar. retro. (0.25 kg/ha), 100%. For the same molecule, the “% damage” value with Bromus spp. (0.25 kg/ha) amounted to 80%; in the data set with Solanum nigrum (one value printed for two rates (0.125 0.25 kg/ha)), 95%; in the data set on Euph. gen. it was 0%; in the data set with Sorgh. halep. (0.125 kg/ha) it was 60%; with Sorgh. halep. (0.25 kg/ha), 60%; in the data set with Alopec. myosur. [3] (1.0 kg/ha), 50%. For the same molecule, the “% damage” value is recorded as 68% in the data set on Stellaria media (1.0 kg/ha), 20% in the data set on Brassica napus [4] (1.0 kg/ha), 90% in the data set with Anth./Matric. (1.0 kg/ha) and 60% in the data set with Lamium spp. (1.0 kg/ha).
On to `CCc1cccc(CC)c1N(Cn1nc(C)cc1C)C(=O)CCl` [Compound 41], for which the “% damage” value with Echin. c.g. (0.25 kg/ha) came to 95%; in the data set with Echin. c.g. (0.5 kg/ha) it was 100%; in the data set with Echin. c.g. (1.0 kg/ha), 100%; in the data set on Echin. c.g. (2.0 kg/ha), 100%; with Cyp. diff. (0.25 kg/ha) it was 100%; in the data set with Cyp. diff. (0.5 kg/ha) it was 100%. For the same molecule, the “% damage” value in the data set with Cyp. diff. (1.0 kg/ha) is recorded as 100%; with Cenchr. ech. (0.25 kg/ha) it was 90%; in the data set on Cenchr. ech. (0.5 kg/ha), 92%; in the data set with Cenchr. ech. (1.0 kg/ha), 100%; in the data set on Cenchr. ech. (2.0 kg/ha), 100%; in the data set with Amar. retro. (0.25 kg/ha) it was 73%. Further, the “% damage” value in the data set with Amar. retro. (0.5 kg/ha) was found to be 97%; in the data set on Amar. retro. (1.0 kg/ha) it was 100%; with Amar. retro. (2.0 kg/ha), 100%; in the data set on Solanum nigrum (0.25 kg/ha), 70%; with Solanum nigrum (0.5 kg/ha), 90%; in the data set on Solanum nigrum (1.0 kg/ha) it was 98%. Moreover, the “% damage” value in the data set on Solanum nigrum (2.0 kg/ha) is on record as 100%; in the data set on Ipom. spp. (1.0 kg/ha), 50%; in the data set on Ipom. spp. (2.0 kg/ha), 90%; with Sida spin. (1.0 kg/ha), 45%; in the data set on Sida spin. (2.0 kg/ha), 90%; in the data set with Lept. spp. (0.25 kg/ha), 95%. For the same molecule, the “% damage” value with Lept. spp. (0.5 kg/ha) came to 95%; in the data set with Lept. spp. (1.0 kg/ha), 95%; with Lept. spp. (2.0 kg/ha), 95%; in the data set on Panic. virg. (0.25 kg/ha) it was 85%; with Panic. virg. (0.5 kg/ha), 85%; in the data set with Panic. virg. (1.0 kg/ha) it was 100%. In addition, the “% damage” value was found to be 100% with Panic. virg. (2.0 kg/ha); 0% with Glyc. max (0.25 kg/ha); 0% in the data set with Glyc. max (0.5 kg/ha); 0% in the data set with Glyc. max (1.0 kg/ha); 0% with Glyc. max (2.0 kg/ha); 0% in the data set on Gossyp. hirs. (0.25 kg/ha). The entries for the “% damage” value in the data set with Gossyp. hirs. (0.5 kg/ha), in the data set on Gossyp. hirs. (1.0 kg/ha) and in the data set on Gossyp. hirs. (2.0 kg/ha) were 8%, 8% and 10%, respectively.
